# Marks after values point to notes of the source that are not given here.
# Columns and labels:
# [1] = test system: Staphylococcus epidermidis No. 533; test: Antibacterial specific activity, twofold dilutions, visual growth evaluation; type: cell-based; details: S. epidermis 533; 36° C., 24 hours
# Method: (§1) The specific activity of compounds also was determined against bacteria strains such as Staphylococcus aureus No. 25923 ATCC (American Type Culture Collection); Staphylococcus aureus No. 100 KC; Staphylococcus epidermidis No. 533; Enterococcus faecalis No. 559; Enterococcus faecium No. 569, Staphylococcus aureus No. 5 (MRSA), Staphylococcus aureus No. 3797 (MRSA). Staphylococcus aureus was cultured on the Trypticase Soy Agar (BBL) commercially available dry medium. Enterococcus faecalis was cultured on the Columbia Agar (BBL) commercially available dry medium. These media were sterilized by autoclaving at 121° C. for 15 min. Bacterial inoculum was constant and was 5×10^5 CFU/ml (10^5 CFU/0.2 ml). For water-soluble compounds, wells from 2nd through 8th were added with the solvent (water) in an amount of 15 μL per well, then the 1st well was added with 30 μL of the stock solution of the tested compound in […] with a concentration of […], and the concentration was adjusted to 0.007×10^3 M by serial twofold dilutions. A 10-μL portion was taken from every well, and 190 μL of the bacterial culture (10^5 CFU) was added per well. For DMSO-soluble compounds, wells from 2nd through 8th were added with the solvent (DMSO) in an amount of 10 μL per well, then the 1st well was added with 20 μL of the stock solution of the tested compound in […] with a concentration of […], and the concentration was adjusted to 0.039×10^3 M by serial twofold dilutions. A 2-μL portion was taken from each well, and 198 μL of the bacterial culture (10^5 CFU) was added per well.
# (§2) The control comprised wells free of tested compounds (culture growth control). In addition, purity control of nutritional media and solvents was used. Plates were incubated in a thermostat at 36° C. for 24 hours.
# (§3) Culture growth was evaluated visually by comparison of how microorganisms grew in the presence of tested compounds and in the absence of them. MIC was set equal to the last dilution of a tested agent which suppressed bacterial culture growth.
# [2] = test system: Staphylococcus aureus No. 5 (MRSA); test: as above; type: cell-based; details: St. aur No. 5 MRSA; 36° C., 24 hours
# Method: as §1, §2, §3
# [3] = test system: Enterococcus faecalis No. 559; test: as above; type: cell-based; details: E. faecalis 559; 36° C., 24 hours
# Method: as §1, §2, §3
# [4] = test system: Vancomycin-resistant Enterococcus faecium 569; test: as above; type: cell-based; details: Vancomycin-resistant E. faecium 569; 36° C., 24 hours
# Method: as §1, §2, §3
# [5] = test system: Staphylococcus aureus No. 100 KC; test: as above; type: cell-based; details: S. aureus 100 KC; 36° C., 24 hours
# Method: as §1, §2, §3
# [6] = test system: Staphylococcus aureus No. 3797 (MRSA); test: as above; type: cell-based; details: St. aur No. 3797 MRSA; 36° C., 24 hours
# Method: as §1, §2, §3
# Escherichia coli 4300 = test: as above; type: cell-based; details: E. coli 4300; 36° C., 24 hours
# Method: [Worded in the source for another organism; this organism is reported under the same test.] as §1, §2, §3
# [7] = test system: Staphylococcus aureus No. 25923 ATCC; test: as above; type: cell-based; details: S. aureus 25923; 36° C., 24 hours
# Method: as §1, §2, §3
# [8] = test system: Staphylococcus aureus 209P; test: Antibacterial activity, serial dilutions in liquid MH medium; type: cell-based; details: for MIC: MH medium, 20 h, 37° C., 100% growth inhibition; for MBC: no colonies on agarized MH medium
# Method: (§4) The antibacterial activity of the compounds was determined against strains of gram-positive bacteria such as Staphylococcus aureus 209P, Enterococcus faecalis BKM B-871, Micrococcus luteus BKM Ac-2230, Bacillus subtilis BKM B-501, and gram-negative bacteria such as Pseudomonas aeruginosa PAO1 and Escherichia coli KM MGU C-600. BKM strains were acquired from the All-Russia Collection of Microorganisms at the Institute for Biochemistry and Physiology of Microorganisms, Russian Academy of Sciences. Strain Staphylococcus aureus 209P was acquired from the Collection of Microorganisms at the Department of microbiology of the Faculty of Biology of Lomonosov Moscow State University, and Pseudomonas aeruginosa PAO1 was acquired from the Collection of Microorganisms at the Institute of Bioorganic Chemistry of the Russian Academy of Sciences.
# (§5) The main parameters characterizing the antibacterial activity are the minimal inhibitory concentration (MIC) and minimal bactericidal concentration (MBC). […] MBC is the least concentration that causes the death of all cells.
# (§6) MIC was quantified by inhibiting culture growth in a liquid medium with serial dilutions of compounds using a modified procedure [Amsterdam, D., 1966. “Susceptibility testing of antimicrobials in liquid media,” pp. 52-111. In Loman, V., ed. Antibiotics in laboratory medicine, 4th ed. Williams and Wilkins, Baltimore].
# (§7) Bacteria were cultured and tested on an MH liquid medium (Mueller-Hinton medium: a dry extract of beef broth, 4 g/L; starch, 1.5 g/L; casein hydrolyzate, 17.5 g/L; Sigma-Fluka Catalog No. 70192) at 37° C., 100% humidity, and under stirring. Cultures (within 4 to 7 passages after thawing) in the exponential growth phase were used for tests.
# (§8) All tested compounds absorb light at 595 nm, a wavelength used for evaluating bacterial culture growth. Therefore, a correction for absorption was applied in estimating the optical density of bacterial suspensions for each compound with account for its concentration in the well. Bacterial growth inhibition (GI) as percentage after 20 hours of incubating cells with compounds was derived from the optical density (A) measured in every well at a wavelength of 595 nm using the equation: GIi=[(Act−Ac0)−(Ait−Ai0)]×100/(Act−Ac0), (1) wherein the subscripts have the following meanings: i denotes the well number, c denotes a control well with bacteria whereto the tested compound is not inserted, 0 refers to the measurement taken immediately once the tested compound was inserted to the well, and t refers to the measurement taken 20 hours after the compound was inserted.
# (§9) The protocol for the determination of experimental antibacterial activity of the tested compounds was as follows. A cryovial with the test strain culture in a medium with 7% DMSO stored in liquid nitrogen, was rapidly defrosted, and 1.5 mL of the fresh MH medium was inoculated with 100 μL of the cell suspension. Cells were grown for one day at 37° C. and stirred on an orbital shaker at 150 rpm. The morphologic features of the strain and the absence of contamination with foreign bacteria were verified by: (a) inoculation on an agarized (15 g/L agar) MH medium and observation of the shape and color of the grown colonies and (b) examination of characteristic morphologic features under a microscope (Mikmed-2, LOMO, Russia) equipped with a 40× objective lens. Further, the bacteria were cultured in 1 mL of the liquid MH medium at 37° C. under stirring. The cells were reseeded every day. Cell cultures were used in tests starting with 3rd reseeding and ending with 6th one.
# (§10) For testing, 5 μL of a bacterial suspension in the stationary growth phase was transferred to 1 mL of a sterile MH medium and incubated until the exponential growth phase was attained (3 to 5 h, 37° C., stirring at 150 rpm). To estimate the microorganism concentration, the optical density (A) of the resulting bacterial culture was measured at a wavelength of 595 nm. […]
# [9] = test system: Bacillus subtilis BKM B-501; test: as above; type: cell-based; details: for MIC: MH medium, 20 h, 37° C., 100% growth inhibition; for MBC: no colonies on agarized MH medium
# Method: as §4, §5, §6, §7, §8, §9, §10
# [10] = test system: Micrococcus luteus BKM Ac-2230; test: as above; type: cell-based; details: for MIC: MH medium, 20 h, 37° C., 100% growth inhibition; for MBC: no colonies on agarized MH medium
# Method: as §4, §5, §6, §7, §8, §9, §10
# [11] = test system: Enterococcus faecalis BKM B-871; test: Antibacterial activity, serial dilutions in liquid MH medium; type: cell-based; details: for MIC: MH medium, 20 h, 37° C., 100% growth inhibition; for MBC: no colonies on agarized MH medium
# Method: as §4, §5, §6, §7, §8, §9, §10
Molecule,MIC [1],MIC [2],MIC [3],MIC [4],MIC [5],MIC [6],MIC (Escherichia coli 4300),MIC [7],MIC [8],MIC [9],MBC [9],MIC [10],MBC [10],water solubility (Water solubility),MBC [8],MIC [11],MBC [11]
"6,7-bis-(N^α-Glycyl]-Protohemin (IX) [VII]",6.25 µM,6.25 µM,>50.0 µM,>50.0 µM,12.5 µM,6.25 µM,>50.0 µM,2.6 µM,50 µM,25 µM,25 µM,12.5 µM,25 µM,–,–,–,–
"6,7-bis-[(Methyl Ester N^α-L-Seryl)-L-Arginyl]-Protohemin (IX) [XIX]",1.3 µM,1.56 µM,1.3 µM,6.25 µM,0.78 µM,1.3 µM,>50.0 µM,0.65 µM,–,–,–,–,–,–,–,–,–
"6,7-bis-[(N^α-L-Arginyl)-L-Seryl]-Protohemin (IX) [XXIV]",2.60 µM,25 µM,>50.0 µM,6.25 µM,5.20 µM,25 µM,>50.0 µM,>50.0 µM,–,–,–,–,–,–,–,–,–
"6,7-bis-[(N^α-L-Seryl)-L-Arginyl]-Protohemin (IX) [XXII]",1.3 µM,25 µM,>50.0 µM,5.2 µM,0.39 µM,20.8 µM,>50.0 µM,1.3 µM,–,–,–,–,–,–,–,–,–
"C=CC1=C(C)c2cc3[n-]c(cc4[n-]c(cc5nc(cc1n2)C(C)=C5C=C)c(C)c4CCC(=O)N[C@@H](CCC(=O)NCCO)C(=O)NCCO)c(CCC(=O)N[C@@H](CCC(=O)NCCO)C(=O)NCCO)c3C.[Cl-].[Fe+3] [XI, 6,7-bis-[(Di-2-hydroxyethylamide)-L-glutamyl]-Protohemin (IX)]",6.25 µM,12.5 µM,33.3 µM,>50.0 µM,>50.0 µM,12.5 µM,>50.0 µM,0.39 µM,–,–,–,–,–,water-insoluble,–,–,–
"C=CC1=C(C)C2=Cc3c(C=C)c(C)c4[n]3[Fe]([Cl])[n]3c(c(C)c(CCC(=O)N[C@@H](CCCNC(=N)N)C(=O)OC)c3=CC3=NC(=C4)C(C)=C3CCC(=O)N[C@@H](CCCNC(=N)N)C(=O)OC)=CC1=N2 [XV, reference compound]",25 µM,–,25 µM,>50 µM,50 µM,–,>50 µM,25 µM,50 µM,3.1 µM,3.1 µM,1.6 µM,3.2 µM,–,200 µM,50 µM,400 µM
"C=CC1=C(C)C2=Cc3c(C=C)c(C)c4[n]3[Fe]([Cl])[n]3c(c(C)c(CCC(=O)N[C@@H](CCC(=O)N[C@@H](CCCNC(=N)N)C(=O)OC)C(=O)N[C@@H](CCCNC(=N)N)C(=O)OC)c3=CC3=NC(=C4)C(C)=C3CCC(=O)N[C@@H](CCC(=O)N[C@@H](CCCNC(=N)N)C(=O)OC)C(=O)N[C@@H](CCCNC(=N)N)C(=O)OC)=CC1=N2 [XVI, reference compound]",–,–,–,–,–,–,–,–,6.3 µM,1.6 µM,>200** μM,3.1 µM,12.5 µM,–,>200** μM,12.5 µM,>200** μM
"C=CC1=C(C)C2=Cc3c(C=C)c(C)c4[n]3[Fe]([Cl])[n]3c(c(C)c(CCC(=O)NCC(=O)OC)c3=CC3=NC(=C4)C(C)=C3CCC(=O)NCC(=O)OC)=CC1=N2 [XVII, reference compound]",25 µM,–,25 µM,>50 µM,>50 µM,–,>50 µM,25 µM,50 µM,12.5 µM,25 µM,1.6 µM,6.5 µM,–,50 µM,100 µM,>200** μM
"C=CC1=C(C)C2=Cc3c(C=C)c(C)c4[n]3[Fe]([Cl])[n]3c(c(C)c(CCC(=O)N[C@@H](CO)C(=O)OC)c3=CC3=NC(=C4)C(C)=C3CCC(=O)N[C@@H](CO)C(=O)OC)=CC1=N2 [XVIII, reference compound]",–,–,–,–,–,–,–,–,25 µM,6.3 µM,9 µM,6.3 µM,12.5 µM,–,200 µM,12.5 µM,25 µM

# — patent publication US9605013B2, “Derivatives of hemin with antibacterial and antiviral activity” (OBSCHESTVO S OGRANICHENNOI OTVETSTVENNOSTIYU …, priority 2011, dated 2017)
